Reference: ChEMBL document CHEMBL1144622, “Novel malonamide derivatives as potent kappa opioid receptor agonists” (Bioorg Med Chem Lett, 2007)

What was measured:
[1] = target: Opioid receptors; mu & kappa (Homo sapiens) (UniProt P41145+P35372); assay: Selectivity for human kappa opioid receptor over human mu opioid receptor; format: functional
[2] = target: Kappa-type opioid receptor (Homo sapiens, UniProt P41145); assay: Agonist activity at human kappa opioid receptor by [35S]GTP-gamma-S binding assay; format: functional
Kappa-type opioid receptor, sequence (P41145 whole entry): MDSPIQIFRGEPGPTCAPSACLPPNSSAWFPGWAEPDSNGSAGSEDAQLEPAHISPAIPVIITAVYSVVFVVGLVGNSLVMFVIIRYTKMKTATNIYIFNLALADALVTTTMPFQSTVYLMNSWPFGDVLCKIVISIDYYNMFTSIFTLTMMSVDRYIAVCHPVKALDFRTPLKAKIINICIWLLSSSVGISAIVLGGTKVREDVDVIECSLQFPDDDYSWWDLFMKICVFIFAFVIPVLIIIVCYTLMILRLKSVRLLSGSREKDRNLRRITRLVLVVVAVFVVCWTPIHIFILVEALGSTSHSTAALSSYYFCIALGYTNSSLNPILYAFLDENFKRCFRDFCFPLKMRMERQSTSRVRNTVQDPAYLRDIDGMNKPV

[3] = target: Opioid receptors; delta & kappa (Homo sapiens) (UniProt P41145+P41143); assay: Selectivity for human kappa opioid receptor over human delta opioid receptor; format: functional
Opioid receptors; delta & kappa (Homo sapiens), sequence (P41143 whole entry, looked up): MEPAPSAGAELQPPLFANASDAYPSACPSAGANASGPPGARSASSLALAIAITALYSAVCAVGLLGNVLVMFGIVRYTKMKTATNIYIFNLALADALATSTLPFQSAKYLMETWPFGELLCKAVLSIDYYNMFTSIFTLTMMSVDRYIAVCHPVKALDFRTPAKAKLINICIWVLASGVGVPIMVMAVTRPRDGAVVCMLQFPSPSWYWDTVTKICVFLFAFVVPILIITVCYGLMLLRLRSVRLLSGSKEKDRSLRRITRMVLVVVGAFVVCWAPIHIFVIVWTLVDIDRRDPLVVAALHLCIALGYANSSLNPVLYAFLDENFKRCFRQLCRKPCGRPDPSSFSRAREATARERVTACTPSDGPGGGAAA
Opioid receptors; delta & kappa (Homo sapiens), sequence (P41145 whole entry, looked up): as the sequence (P41145 whole entry) above

Cytochrome P450 2D6 = Cytochrome P450 2D6 (Homo sapiens, UniProt P10635); assay: Inhibition of CYP2D6; format: ADME
Cytochrome P450 2D6, sequence (P10635 whole entry): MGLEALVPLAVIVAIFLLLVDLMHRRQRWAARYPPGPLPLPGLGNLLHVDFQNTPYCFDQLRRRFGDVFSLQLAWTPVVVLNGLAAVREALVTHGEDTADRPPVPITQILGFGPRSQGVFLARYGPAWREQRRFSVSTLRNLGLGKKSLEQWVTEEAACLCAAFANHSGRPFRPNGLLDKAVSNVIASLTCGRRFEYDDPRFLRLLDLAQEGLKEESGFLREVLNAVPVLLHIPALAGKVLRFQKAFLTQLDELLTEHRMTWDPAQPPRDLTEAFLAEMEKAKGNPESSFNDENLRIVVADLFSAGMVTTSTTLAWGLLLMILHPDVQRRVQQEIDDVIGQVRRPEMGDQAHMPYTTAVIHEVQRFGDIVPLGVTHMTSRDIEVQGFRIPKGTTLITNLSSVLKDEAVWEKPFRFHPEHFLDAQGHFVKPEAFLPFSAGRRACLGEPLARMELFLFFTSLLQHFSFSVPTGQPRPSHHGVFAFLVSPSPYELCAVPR

Rattus norvegicus = assay: Antinociceptive activity in rat at 300 ug, sc by formalin-induced flinching assay; format: functional
Mus musculus = assay: Analgesic activity in sc dosed mouse assessed as inhibition of acetic acid-induced writhing; format: functional

Opioid receptors; mu & kappa (Homo sapiens), sequence (P35372 whole entry, looked up): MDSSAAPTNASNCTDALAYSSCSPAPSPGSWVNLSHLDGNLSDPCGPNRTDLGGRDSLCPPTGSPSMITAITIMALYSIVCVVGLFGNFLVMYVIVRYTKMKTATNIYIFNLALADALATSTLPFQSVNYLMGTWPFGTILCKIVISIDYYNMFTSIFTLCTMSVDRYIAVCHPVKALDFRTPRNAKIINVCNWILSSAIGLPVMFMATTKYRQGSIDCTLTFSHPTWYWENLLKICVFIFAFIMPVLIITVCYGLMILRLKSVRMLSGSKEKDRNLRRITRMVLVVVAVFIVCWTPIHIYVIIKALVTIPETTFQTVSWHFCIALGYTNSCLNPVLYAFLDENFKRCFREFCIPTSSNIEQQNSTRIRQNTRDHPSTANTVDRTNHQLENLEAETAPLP
Opioid receptors; mu & kappa (Homo sapiens), sequence (P41145 whole entry, looked up): as the sequence (P41145 whole entry) above

Compound | Ratio Ki [1] | Ki [2] [nM] | Ratio Ki [3] | IC50 (Cytochrome P450 2D6) [nM] | Activity (Rattus norvegicus) [%] | ED50 (Mus musculus) [mg/kg]
CN(C(=O)NCC(=O)Nc1ccccc1)[C@H](CN1CC[C@H](O)C1)c1ccccc1 | 110 | 6.5 | 8.7 | 5100 | – | –
CN(C(=O)CC(=O)NCc1ccccc1)[C@H](CN1CC[C@H](O)C1)c1ccccc1 | 120 | 15 | 40 | 3200 | – | –
CN(C(=O)CCC(=O)Nc1nccs1)[C@H](CN1CC[C@H](O)C1)c1ccccc1 | – | 23 | 14 | 3400 | – | –
CN(C(=O)CC(=O)Nc1cccnc1)[C@H](CN1CC[C@H](O)C1)c1ccccc1 | 450 | 1.3 | 15 | > 10000 | – | –
CN(C(=O)CCC(=O)Nc1ccccc1)[C@H](CN1CC[C@H](O)C1)c1ccccc1 | – | 6 | 220 | 8600 | – | –
CN(C(=O)CCC(=O)Nc1cccnc1)[C@H](CN1CC[C@H](O)C1)c1ccccc1 | – | 280 | 5 | > 10000 | – | –
CN(C(=O)CC(=O)Nc1ccccc1)[C@H](CN1CC[C@H](O)C1)c1ccccc1 | 120 | 0.27 | 25 | 5300 | 93 | 0.03
CN(C(=O)CC(=O)Nc1ccc(CNS(C)(=O)=O)cc1)[C@H](CN1CC[C@H](O)C1)c1ccccc1 | 4.3 | 96 | 10 | 5400 | – | –
CN(C(=O)CC(=O)Nc1ccc(NS(C)(=O)=O)cc1)[C@H](CN1CC[C@H](O)C1)c1ccccc1 | 4.8 | 29 | 39 | 10000 | – | –
CN(C(=O)CC(=O)Nc1nccs1)[C@H](CN1CC[C@H](O)C1)c1ccccc1 | 180 | 0.53 | 71 | 700 | – | –
